From PubChem BioAssay AID330 (DTP/NCI, 2004)
Where “and” joins values, the source holds several entries; their conditions need not be identical. Equal values may be shown once. Toxic doses and inconclusive results are not listed.

Test system: P388 leukemia ip, CD2F1 mice, survival T/C
Assay: NCI In Vivo Anticancer Drug Screen. Data for tumor model P388 Leukemia (intraperitoneal) in CD2F1 (CDF1) mice
Details: endpoint: median survival time, higher = longer survival
Summary of the method: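 Mice carrying the transplanted tumor received test compound or vehicle. Survival was recorded in each group, and the value is the treated-group measurement divided by that of the vehicle-treated control group.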

[1] = dose: 100.0 mg/kg/injection, schedule: Q04DX003 (ip), vehicle: saline with Tween-80
[2] = dose: 50.0 mg/kg/injection, schedule: Q01DX005 (ip), vehicle: Klucel (hydroxypropylcellulose) (HPC)
[3] = dose: 100.0 mg/kg/injection, schedule: Q01DX005 (ip), vehicle: Klucel (hydroxypropylcellulose) (HPC)
[4] = dose: 60.0 mg/kg/injection, schedule: Q01DX005 (ip), vehicle: saline with Tween-80
[5] = dose: 120.0 mg/kg/injection, schedule: Q01DX005 (ip), vehicle: saline with Tween-80
[6] = dose: 240.0 mg/kg/injection, schedule: Q01DX005 (ip), vehicle: saline with Tween-80
[7] = dose: 50.0 mg/kg/injection, schedule: Q01DX009 (ip), vehicle: saline with Tween-80
[8] = dose: 3.12 mg/kg/injection, schedule: Q01DX005 (ip), vehicle: Klucel (hydroxypropylcellulose) (HPC)
[9] = dose: 50.0 mg/kg/injection, schedule: Q01DX005 (ip), vehicle: saline with Tween-80
[10] = dose: 100.0 mg/kg/injection, schedule: Q01DX005 (ip), vehicle: saline with Tween-80
[11] = dose: 200.0 mg/kg/injection, schedule: Q01DX005 (ip), vehicle: saline with Tween-80
[12] = dose: 100.0 mg/kg/injection, schedule: Q04DX003 (ip), vehicle: saline
[13] = dose: 200.0 mg/kg/injection, schedule: Q04DX003 (ip), vehicle: saline
[14] = dose: 400.0 mg/kg/injection, schedule: Q04DX003 (ip), vehicle: saline
[15] = dose: 200.0 mg/kg/injection, schedule: Q01DX005 (ip), vehicle: Klucel (hydroxypropylcellulose) (HPC)
[16] = dose: 100.0 mg/kg/injection, schedule: Q01DX009 (ip), vehicle: Klucel (hydroxypropylcellulose) (HPC)
[17] = dose: 200.0 mg/kg/injection, schedule: Q01DX009 (ip), vehicle: Klucel (hydroxypropylcellulose) (HPC)
[18] = dose: 100.0 mg/kg/injection, schedule: Q01DX009 (ip), vehicle: saline with Tween-80
[19] = dose: 200.0 mg/kg/injection, schedule: Q01DX009 (ip), vehicle: saline with Tween-80

## CCOC(=O)CCCc1ccc(N=NN(C)C)cc1
dose: 66.0 mg/kg/injection, schedule: Q04DX003 (ip), vehicle: saline with Tween-80
  T/C: 118 % of control
[1]
  T/C: 159 % of control

## CC(C)CCOCCOCCCN1C(=O)C2C3C=CC(C3)C2C1=O (centres undefined)
[2]
  T/C: 99 % of control
[3]
  T/C: 100 % of control

## O=NNc1cccnc1Cl
dose: 1.56 mg/kg/injection, schedule: Q01DX009 (ip), vehicle: water
  T/C: 110 % of control
dose: 3.12 mg/kg/injection, schedule: Q01DX009 (ip), vehicle: water
  T/C: 102 % of control and 108 % of control
dose: 6.25 mg/kg/injection, schedule: Q01DX009 (ip), vehicle: water
  T/C: 99 % of control and 98 % of control
dose: 12.5 mg/kg/injection, schedule: Q01DX009 (ip), vehicle: water
  T/C: 107 % of control and 110 % of control
dose: 25.0 mg/kg/injection, schedule: Q01DX009 (ip), vehicle: water
  T/C: 107 % of control and 117 % of control
dose: 50.0 mg/kg/injection, schedule: Q01DX009 (ip), vehicle: water
  T/C: 105 % of control

## O=C(S)CC(O)(CCl)c1ccc(-c2ccccc2)cc1 (centres undefined)
dose: 100.0 mg/kg/injection, schedule: Q04DX002 (ip), vehicle: Klucel (hydroxypropylcellulose) (HPC)
  T/C: 113 % of control
dose: 200.0 mg/kg/injection, schedule: Q04DX002 (ip), vehicle: Klucel (hydroxypropylcellulose) (HPC)
  T/C: 101 % of control

## C[C@H]1/C(=C/C(=O)OCCN(C)C)CC[C@H]2[C@H]1C(=O)C[C@H]1C(C)(C)[C@@H](O)CC[C@]21C
dose: 3.12 mg/kg/injection, schedule: Q01DX009 (ip), vehicle: saline
  T/C: 101 % of control
dose: 6.25 mg/kg/injection, schedule: Q01DX009 (ip), vehicle: saline
  T/C: 96 % of control
dose: 12.5 mg/kg/injection, schedule: Q01DX009 (ip), vehicle: saline
  T/C: 100 % of control
dose: 25.0 mg/kg/injection, schedule: Q01DX009 (ip), vehicle: saline
  T/C: 100 % of control

## O=[N+]([O-])c1cccc(/C=N/NS(=O)(=O)c2ccc(F)cc2)c1O
[4]
  T/C: 95 % of control
[5]
  T/C: 93 % of control
[6]
  T/C: 106 % of control

## c1ccc2c[n+](CC[n+]3ccc4ccccc4c3)ccc2c1
dose: 25.0 mg/kg/injection, schedule: Q01DX009 (ip), vehicle: saline with Tween-80
  T/C: 100 % of control
[7]
  T/C: 118 % of control

## c1ccc2c(c1)ccc1[nH]c3ccc4ccccc4c3c12
dose: 1.56 mg/kg/injection, schedule: Q01DX005 (ip), vehicle: Klucel (hydroxypropylcellulose) (HPC)
  T/C: 100 % of control and 109 % of control and 111 % of control
[8]
  T/C: 107 % of control and 116 % of control and 117 % of control

## COC(=O)c1c(C(=O)OC)c(Nc2ccccc2)c2ccccc2c1O
[8]
  T/C: 115 % of control
dose: 6.25 mg/kg/injection, schedule: Q01DX005 (ip), vehicle: Klucel (hydroxypropylcellulose) (HPC)
  T/C: 107 % of control
dose: 12.5 mg/kg/injection, schedule: Q01DX005 (ip), vehicle: Klucel (hydroxypropylcellulose) (HPC)
  T/C: 99 % of control

## COc1cc(CN2CCCCC2)cc2cc(C(=O)O)c(=O)oc12
[9]
  T/C: 103 % of control
[10]
  T/C: 101 % of control
[11]
  T/C: 100 % of control

## Cc1ccc(S(=O)(=O)/N=C/[N-][n+]2cccc(C)c2)cc1
[12]
  T/C: 104 % of control
[13]
  T/C: 97 % of control
[14]
  T/C: 97 % of control

## COC(c1ccccc1)(c1ccccc1)c1ccc2ccc3ccccc3c2c1
[2]
  T/C: 91 % of control
[3]
  T/C: 96 % of control
[15]
  T/C: 95 % of control

## CN=P1(NC)NP(=NC)(NC)NP(=NC)(NC)NP(=NC)(NC)N1.[Cl-].[Cl-].[Cl-].[Cl-].[Pt+2] (centres undefined)
dose: 12.5 mg/kg/injection, schedule: Q04DX003 (ip), vehicle: saline with Tween-80
  T/C: 102 % of control
dose: 25.0 mg/kg/injection, schedule: Q04DX003 (ip), vehicle: saline with Tween-80
  T/C: 111 % of control
dose: 50.0 mg/kg/injection, schedule: Q04DX003 (ip), vehicle: saline with Tween-80
  T/C: 120 % of control
[1]
  T/C: 109 % of control

## O=c1ccn(C2OC(CO)C(O)C2Cl)c(=O)[nH]1 (centres undefined)
dose: 6.25 mg/kg/injection, schedule: Q01DX009 (ip), vehicle: Klucel (hydroxypropylcellulose) (HPC)
  T/C: 101 % of control
dose: 12.5 mg/kg/injection, schedule: Q01DX009 (ip), vehicle: Klucel (hydroxypropylcellulose) (HPC)
  T/C: 104 % of control
dose: 25.0 mg/kg/injection, schedule: Q01DX009 (ip), vehicle: Klucel (hydroxypropylcellulose) (HPC)
  T/C: 109 % of control
dose: 50.0 mg/kg/injection, schedule: Q01DX009 (ip), vehicle: Klucel (hydroxypropylcellulose) (HPC)
  T/C: 105 % of control
[16]
  T/C: 101 % of control
[17]
  T/C: 104 % of control

## CCN1C(=O)C=CC1=O
dose: 1.56 mg/kg/injection, schedule: Q04DX003 (ip), vehicle: saline with Tween-80
  T/C: 109 % of control and 98 % of control
dose: 3.12 mg/kg/injection, schedule: Q04DX003 (ip), vehicle: saline with Tween-80
  T/C: 99 % of control and 96 % of control
dose: 6.25 mg/kg/injection, schedule: Q04DX003 (ip), vehicle: saline with Tween-80
  T/C: 99 % of control and 95 % of control

## O=C(O)/C=N/NS(=O)(=O)c1ccc2ccccc2c1
dose: 50.0 mg/kg/injection, schedule: Q01DX009 (ip), vehicle: other
  T/C: 161 % of control and 164 % of control
dose: 200.0 mg/kg/injection, schedule: Q01DX009 (ip), vehicle: other
  T/C: 153 % of control

## CCN(CCNc1ccc(C)c2sc3cc(Cl)ccc3c(=O)c12)CC(C)(C)O
dose: 12.5 mg/kg/injection, schedule: Q01DX005 (ip), vehicle: saline with Tween-80
  T/C: 95 % of control
dose: 25.0 mg/kg/injection, schedule: Q01DX005 (ip), vehicle: saline with Tween-80
  T/C: 92 % of control
[9]
  T/C: 88 % of control and 97 % of control
[11]
  T/C: 95 % of control

## CCc1ccnc(N=C2N=C(Nc3cc(CC)ccn3)c3ccccc32)c1
[7]
  T/C: 92 % of control
[18]
  T/C: 97 % of control
[19]
  T/C: 97 % of control

## N/C(CC(=O)Nc1cc(C(F)(F)F)ccc1Cl)=N\O
[4]
  T/C: 108 % of control
[5]
  T/C: 100 % of control
[6]
  T/C: 108 % of control

## CC(C)CC(=O)C1C(c2ccccc2)CC(=O)C(C(C)C)C1c1ccccc1 (centres undefined)
[9]
  T/C: 92 % of control
[10]
  T/C: 92 % of control

## CC(C)(C)c1cc(NC(=O)C(F)(F)F)c(Cl)c(C(C)(C)C)c1O
[2]
  T/C: 109 % of control
[3]
  T/C: 100 % of control
[15]
  T/C: 108 % of control

## CCCCN1C(=O)NC(C)C1=O (centres undefined)
[9]
  T/C: 99 % of control
[10]
  T/C: 108 % of control
[11]
  T/C: 103 % of control

## NC(=S)c1cccc(/C=N/Nc2ccc([N+](=O)[O-])cc2[N+](=O)[O-])c1
dose: 100.0 mg/kg/injection, schedule: Q01DX001 (ip), vehicle: saline
  T/C: 99 % of control
dose: 200.0 mg/kg/injection, schedule: Q01DX001 (ip), vehicle: saline
  T/C: 105 % of control
dose: 400.0 mg/kg/injection, schedule: Q01DX001 (ip), vehicle: saline
  T/C: 96 % of control

## Nc1cc(Cl)c(O)c(Cl)c1
dose: 25.0 mg/kg/injection, schedule: Q01DX001 (ip), vehicle: saline with Tween-80
  T/C: 100 % of control
dose: 50.0 mg/kg/injection, schedule: Q01DX001 (ip), vehicle: saline with Tween-80
  T/C: 95 % of control
dose: 100.0 mg/kg/injection, schedule: Q01DX001 (ip), vehicle: saline with Tween-80
  T/C: 90 % of control

## O=C(NC1C=Nc2ccccc2NC1=O)c1ccc(Cl)cc1 (centres undefined)
dose: 60.0 mg/kg/injection, schedule: Q01DX005 (ip), vehicle: Klucel (hydroxypropylcellulose) (HPC)
  T/C: 91 % of control
dose: 120.0 mg/kg/injection, schedule: Q01DX005 (ip), vehicle: Klucel (hydroxypropylcellulose) (HPC)
  T/C: 98 % of control
dose: 240.0 mg/kg/injection, schedule: Q01DX005 (ip), vehicle: Klucel (hydroxypropylcellulose) (HPC)
  T/C: 91 % of control

## O=C1C(C2=CCCCC2)CCCC1C1=CCCCC1 (centres undefined)
[7]
  T/C: 89 % of control
[18]
  T/C: 91 % of control
[19]
  T/C: 104 % of control

## C[N+]1=CN(S(=O)(=O)C2C=CC=CC=C2)C(C)(C)C1(C)C
[12]
  T/C: 103 % of control
[13]
  T/C: 103 % of control
[14]
  T/C: 99 % of control

## CCOC(=O)c1ccc(NC(C)=O)cc1
[16]
  T/C: 100 % of control
[17]
  T/C: 107 % of control
dose: 400.0 mg/kg/injection, schedule: Q01DX009 (ip), vehicle: Klucel (hydroxypropylcellulose) (HPC)
  T/C: 112 % of control

## C=CCCc1c(OC)cccc1C1=NC(C)(C)CO1
[9]
  T/C: 106 % of control
[10]
  T/C: 102 % of control
[11]
  T/C: 100 % of control
